Measurements from ChEMBL document CHEMBL4118122, “Identification and biological evaluation of thiazole-based inverse agonists of RORγt” (Bioorg Med Chem Lett, 2018).
pKd: −log10 of the molar value. Converted amounts (≈) assume the structure as drawn.

Legend:
[1] = Half life in rat microsomes; assay type: ADME, Microsome
[2] = Half life in human microsomes; assay type: ADME, Microsome
Cytochrome P450 1A2 = molecular target: T1, Cytochrome P450 1A2 (Homo sapiens, UniProt P05177); assay: Inhibition of CYP1A2 (unknown origin); assay type: ADME
T1 sequence (P05177 whole entry): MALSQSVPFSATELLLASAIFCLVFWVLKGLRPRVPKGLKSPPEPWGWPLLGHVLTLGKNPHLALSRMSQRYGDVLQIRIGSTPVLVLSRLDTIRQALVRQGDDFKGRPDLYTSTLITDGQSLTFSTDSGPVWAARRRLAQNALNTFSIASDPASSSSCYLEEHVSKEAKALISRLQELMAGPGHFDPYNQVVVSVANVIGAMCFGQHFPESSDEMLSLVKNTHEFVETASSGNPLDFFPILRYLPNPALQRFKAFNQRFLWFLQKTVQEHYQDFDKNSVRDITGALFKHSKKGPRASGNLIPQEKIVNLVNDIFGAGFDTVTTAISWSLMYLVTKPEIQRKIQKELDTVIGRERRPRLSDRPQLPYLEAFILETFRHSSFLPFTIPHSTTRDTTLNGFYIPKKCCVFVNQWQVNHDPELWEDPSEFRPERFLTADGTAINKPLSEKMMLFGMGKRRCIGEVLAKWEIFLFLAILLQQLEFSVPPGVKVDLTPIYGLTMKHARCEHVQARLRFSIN

Cytochrome P450 2C19 = Cytochrome P450 2C19 (Homo sapiens, UniProt P33261); assay: Inhibition of CYP2C19 (unknown origin); assay type: ADME
Cytochrome P450 2C8 = molecular target: T2, Cytochrome P450 2C8 (Homo sapiens, UniProt P10632); assay: Inhibition of CYP2C8 (unknown origin); assay type: ADME
T2 sequence (P10632 whole entry): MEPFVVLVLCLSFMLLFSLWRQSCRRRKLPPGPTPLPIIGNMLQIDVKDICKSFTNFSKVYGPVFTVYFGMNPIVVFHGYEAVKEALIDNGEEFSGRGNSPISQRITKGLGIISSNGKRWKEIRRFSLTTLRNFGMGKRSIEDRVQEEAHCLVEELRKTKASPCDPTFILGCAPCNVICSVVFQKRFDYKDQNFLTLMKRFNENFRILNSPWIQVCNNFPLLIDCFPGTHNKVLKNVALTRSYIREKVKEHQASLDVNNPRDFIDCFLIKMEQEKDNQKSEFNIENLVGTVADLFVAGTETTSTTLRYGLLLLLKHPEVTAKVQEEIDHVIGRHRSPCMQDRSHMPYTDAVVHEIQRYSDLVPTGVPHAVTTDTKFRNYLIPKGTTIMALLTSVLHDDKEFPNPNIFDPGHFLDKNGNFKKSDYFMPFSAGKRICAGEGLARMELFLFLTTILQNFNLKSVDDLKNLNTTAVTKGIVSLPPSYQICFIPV

Cytochrome P450 2C9 = Cytochrome P450 2C9 (Homo sapiens, UniProt P11712); assay: Inhibition of CYP2C9 (unknown origin); assay type: ADME
Cytochrome P450 2D6 = Cytochrome P450 2D6 (Homo sapiens, UniProt P10635); assay: Inhibition of CYP2D6 (unknown origin); assay type: ADME
Cytochrome P450 3A4 = Cytochrome P450 3A4 (Homo sapiens, UniProt P08684); assay: Inhibition of CYP3A4 (unknown origin); assay type: ADME
[3] = molecular target: T3, Nuclear receptor ROR-beta (Homo sapiens, UniProt Q92753); assay: Binding affinity to recombinant human RORbeta LBD (201 to 452 residues) expressed in Escherichia coli BL21 (DE3) GOLD by 1,8-ANS dye-based thermofluor assay
T3 sequence (Q92753 whole entry): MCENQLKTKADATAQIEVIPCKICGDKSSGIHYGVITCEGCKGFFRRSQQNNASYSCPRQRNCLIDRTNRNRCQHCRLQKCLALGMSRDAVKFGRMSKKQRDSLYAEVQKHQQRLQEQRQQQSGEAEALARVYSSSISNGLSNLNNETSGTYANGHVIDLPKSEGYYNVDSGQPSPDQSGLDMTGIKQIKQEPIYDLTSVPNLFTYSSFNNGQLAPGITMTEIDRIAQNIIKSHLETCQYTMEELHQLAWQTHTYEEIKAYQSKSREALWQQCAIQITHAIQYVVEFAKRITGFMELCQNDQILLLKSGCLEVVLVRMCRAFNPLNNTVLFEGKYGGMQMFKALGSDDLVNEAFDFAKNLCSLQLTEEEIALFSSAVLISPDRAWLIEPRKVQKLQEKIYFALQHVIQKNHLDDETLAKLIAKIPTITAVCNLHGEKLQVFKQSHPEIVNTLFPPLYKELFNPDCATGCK

PXR (NR1I2) [4] = molecular target: T4, PXR (NR1I2) (Homo sapiens, UniProt O75469); assay: […] at PXR LBD (unknown origin) expressed in HEK293 cells […] at 1 uM after 16 hrs by luciferase reporter gene assay relative to rifampicin; assay type: ADME, cell-based; settings: HEK293 cells expressing PXR LBD, read-out: Efficacy
T4 sequence (O75469 whole entry): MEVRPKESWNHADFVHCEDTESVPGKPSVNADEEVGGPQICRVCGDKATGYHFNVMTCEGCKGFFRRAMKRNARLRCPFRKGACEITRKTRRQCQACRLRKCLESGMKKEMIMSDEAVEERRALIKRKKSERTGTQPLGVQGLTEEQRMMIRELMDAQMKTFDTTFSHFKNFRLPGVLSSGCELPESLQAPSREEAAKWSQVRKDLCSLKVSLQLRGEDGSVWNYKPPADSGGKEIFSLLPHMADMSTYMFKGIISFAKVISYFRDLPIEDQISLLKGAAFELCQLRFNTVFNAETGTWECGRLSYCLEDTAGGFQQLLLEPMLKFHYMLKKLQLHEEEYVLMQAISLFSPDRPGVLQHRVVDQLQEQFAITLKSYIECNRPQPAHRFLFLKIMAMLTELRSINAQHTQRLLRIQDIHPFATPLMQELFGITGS

PXR (NR1I2) [5] = molecular target: T4, PXR (NR1I2); assay: […] at PXR LBD (unknown origin) expressed in HEK293 cells […] at 5 uM after 16 hrs by luciferase reporter gene assay relative to rifampicin; assay type: ADME, cell-based; settings: HEK293 cells expressing PXR LBD, read-out: Efficacy
[6] = Thermodynamic solubility of the compound in 30 mM phosphate buffer at 10 mM at pH 7 after 2 to 5 days by UV-HPLC analysis; assay type: physicochemical; settings: read-out: Therm_solubility
PXR (NR1I2) [7] = molecular target: T4, PXR (NR1I2); assay: […] at PXR LBD (unknown origin) expressed in HEK293 cells […] at 10 uM after 16 hrs by luciferase reporter gene assay relative to rifampicin; assay type: ADME, cell-based; settings: HEK293 cells expressing PXR LBD, read-out: Efficacy
[8] = Thermodynamic solubility of the compound in fasted state simulated intestinal […] after 2 to 5 days by UV-HPLC analysis; assay type: physicochemical; settings: read-out: Therm_solubility

Sequence of Cytochrome P450 2C19 (P33261 whole entry): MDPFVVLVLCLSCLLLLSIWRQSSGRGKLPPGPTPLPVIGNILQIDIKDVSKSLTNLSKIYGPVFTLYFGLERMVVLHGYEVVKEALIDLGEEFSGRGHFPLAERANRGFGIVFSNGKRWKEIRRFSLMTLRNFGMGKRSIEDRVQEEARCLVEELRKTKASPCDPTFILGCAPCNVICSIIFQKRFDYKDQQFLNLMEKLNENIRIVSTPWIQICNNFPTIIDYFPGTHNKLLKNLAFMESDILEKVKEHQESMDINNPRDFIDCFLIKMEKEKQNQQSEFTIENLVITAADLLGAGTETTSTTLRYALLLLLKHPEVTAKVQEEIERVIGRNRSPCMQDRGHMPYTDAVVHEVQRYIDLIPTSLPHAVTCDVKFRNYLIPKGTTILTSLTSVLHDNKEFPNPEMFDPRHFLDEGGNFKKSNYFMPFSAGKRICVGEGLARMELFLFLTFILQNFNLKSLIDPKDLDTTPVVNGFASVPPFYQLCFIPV
Sequence of Cytochrome P450 2C9 (P11712 whole entry): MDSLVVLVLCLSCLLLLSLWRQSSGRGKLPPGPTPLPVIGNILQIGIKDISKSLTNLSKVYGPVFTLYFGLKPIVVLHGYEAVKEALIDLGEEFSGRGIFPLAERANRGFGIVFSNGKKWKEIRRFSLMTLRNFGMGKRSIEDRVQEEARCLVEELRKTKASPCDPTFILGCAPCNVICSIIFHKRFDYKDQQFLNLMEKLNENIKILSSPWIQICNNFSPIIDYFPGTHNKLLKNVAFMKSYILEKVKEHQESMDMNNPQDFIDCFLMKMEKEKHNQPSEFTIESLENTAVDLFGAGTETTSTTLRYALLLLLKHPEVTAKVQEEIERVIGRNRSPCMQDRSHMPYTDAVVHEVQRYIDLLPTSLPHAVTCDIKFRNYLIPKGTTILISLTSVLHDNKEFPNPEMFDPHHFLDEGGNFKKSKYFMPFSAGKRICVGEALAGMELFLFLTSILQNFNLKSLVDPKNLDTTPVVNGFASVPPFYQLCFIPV
Sequence of Cytochrome P450 3A4 (P08684 whole entry, the tested form may be a part): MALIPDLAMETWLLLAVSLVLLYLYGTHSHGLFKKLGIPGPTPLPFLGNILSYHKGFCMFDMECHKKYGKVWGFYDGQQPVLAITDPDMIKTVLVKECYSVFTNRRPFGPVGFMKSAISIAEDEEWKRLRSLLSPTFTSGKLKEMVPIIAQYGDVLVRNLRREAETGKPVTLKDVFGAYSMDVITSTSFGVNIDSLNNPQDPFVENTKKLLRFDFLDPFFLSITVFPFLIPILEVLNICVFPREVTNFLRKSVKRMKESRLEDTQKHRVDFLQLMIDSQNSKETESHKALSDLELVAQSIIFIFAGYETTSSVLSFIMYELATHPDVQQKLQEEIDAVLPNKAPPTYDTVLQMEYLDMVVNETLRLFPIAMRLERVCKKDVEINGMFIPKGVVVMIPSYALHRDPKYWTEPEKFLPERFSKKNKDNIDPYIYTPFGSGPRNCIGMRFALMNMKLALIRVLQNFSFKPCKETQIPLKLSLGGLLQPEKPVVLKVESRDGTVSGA
Sequence of Cytochrome P450 2D6 (P10635 whole entry): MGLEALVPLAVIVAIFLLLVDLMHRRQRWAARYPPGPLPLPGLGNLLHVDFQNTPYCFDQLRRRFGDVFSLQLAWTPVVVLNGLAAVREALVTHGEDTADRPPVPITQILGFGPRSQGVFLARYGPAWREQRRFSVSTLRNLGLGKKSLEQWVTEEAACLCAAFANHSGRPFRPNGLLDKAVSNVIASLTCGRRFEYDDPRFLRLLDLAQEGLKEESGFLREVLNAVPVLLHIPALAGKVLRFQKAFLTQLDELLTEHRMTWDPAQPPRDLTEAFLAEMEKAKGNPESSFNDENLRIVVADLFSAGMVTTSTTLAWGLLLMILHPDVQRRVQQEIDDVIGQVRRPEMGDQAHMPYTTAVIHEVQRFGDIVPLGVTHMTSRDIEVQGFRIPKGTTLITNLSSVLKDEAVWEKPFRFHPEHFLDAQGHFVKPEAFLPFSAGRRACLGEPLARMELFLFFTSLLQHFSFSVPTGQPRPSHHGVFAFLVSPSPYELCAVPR

Structure (SMILES) | half-life [1] [min] | half-life [2] [min] | INH (Cytochrome P450 1A2) [µM] | INH (Cytochrome P450 2C19) [µM] | INH (Cytochrome P450 2C8) [µM] | INH (Cytochrome P450 2C9) [µM] | INH (Cytochrome P450 2D6) [µM] | INH (Cytochrome P450 3A4) [µM] | pKd [3] | Emax at 16 h, 1 µM (PXR (NR1I2) [4]) [%] | Emax at 16 h, 5 µM (PXR (NR1I2) [5]) [%] | solubility thermodynamic at 10000 µM [6] [µM] | Emax at 16 h, 10 µM (PXR (NR1I2) [7]) [%] | solubility thermodynamic [8] [µM]
CC(C)(O)CNC(=O)c1nc(CC2CCCCC2)c(-c2ccc(S(=O)(=O)NC(C)(C)C)c(Cl)c2C(F)F)s1 | 14 | 18 | > 10 | 5.6 | 4.6 | 0.4 | > 10 | 6.9 |  |  |  |  |  | 
C[C@H](NS(=O)(=O)c1ccc(-c2sc(C(=O)NCC(C)(C)O)nc2C2CCCCC2)c(Cl)c1Cl)C(F)(F)F |  |  |  |  |  |  |  |  | < 4.12 | 60 | 68 |  |  | 
C[C@H](NS(=O)(=O)c1ccc(-c2sc(C(=O)NCC(C)(C)O)nc2COC(C)(C)C)c(Cl)c1Cl)C(F)(F)F | > 180 | > 180 |  | 6.5 | > 10 | 1.7 | > 10 | > 10 |  | 61 | 117 | 12 (≈ 7.28 µg/mL) |  | 
CC(C)(C)NS(=O)(=O)c1ccc(-c2sc(C(=O)N[C@H]3C[C@H](C(=O)O)C3)nc2CC2CCCCC2)c2c1CCCC2 | 22 | 16 | > 10 | > 10 | 4.2 | > 10 | > 10 | > 10 |  | 10 |  | < 1 | 20 | 
CC(C)(C)NC(=O)c1cc(-c2sc(C(=O)N[C@H]3C[C@H](C(=O)O)C3)nc2CC2CCCCC2)cc(C2(C)CC2)c1 |  |  |  |  |  |  |  |  |  | 11 |  |  | 53 | 
C[C@H](NS(=O)(=O)c1ccc(-c2sc(C(=O)NCC(C)(C)O)nc2-c2cccc(F)c2)c(Cl)c1Cl)C(F)(F)F |  |  |  |  |  |  |  |  | < 4.11 | 69 | 122 |  |  | 
CC(C)(C)NS(=O)(=O)c1ccc(-c2sc(C(=O)NC3CS(=O)(=O)C3)nc2CC2CCCCC2)c2ccccc12 |  |  |  |  |  |  |  |  |  | 181 |  |  | 187 | 
CC(C)(C)NS(=O)(=O)c1ccc(-c2sc(C(=O)N3CC4(C3)CS(=O)(=O)C4)nc2CC2CCCCC2)c2ccccc12 |  |  |  |  |  |  |  |  | < 4.07 |  |  |  |  | 
CC(C)(C)NS(=O)(=O)c1ccc(-c2sc(C(=O)N[C@H]3C[C@H](C(=O)O)C3)nc2CC2CCCCC2)c(C(F)(F)F)c1 | 140 | > 180 | > 10 | > 10 | 3.4 | > 10 | > 10 | > 10 |  |  |  | < 4 |  | > 400
C[C@H](NC(=O)c1cc(-c2sc(C(=O)N[C@H]3C[C@H](C(=O)O)C3)nc2CC2CCCCC2)cc(C2(C)CC2)c1)C(F)(F)F | 150 | > 180 | > 10 | > 10 | > 10 | > 10 | > 10 | > 10 |  | 26 |  | 17 (≈ 10.1 µg/mL) | 94 | 
CC(C)(C)NS(=O)(=O)c1ccc(-c2sc(C(=O)NC3CCOCC3)nc2CC2CCCCC2)c2ccccc12 |  |  |  |  |  |  |  |  |  | 181 |  |  | 206 | 
CC(C)(C)NS(=O)(=O)c1ccc(-c2sc(C(=O)N[C@H]3C[C@H](C(=O)O)C3)nc2CC2CCCCC2)c(Cl)c1Cl |  |  |  |  |  |  |  |  |  | 16 |  |  | 23 | 
CCS(=O)(=O)c1ccc(CNC(=O)c2nc(CC3CCCCC3)c(-c3ccc(S(=O)(=O)NC(C)(C)C)c4ccccc34)s2)cc1 |  |  |  |  |  |  |  |  |  | 26 |  |  | 94 | 
CC(C)(C)NS(=O)(=O)c1ccc(-c2sc(C(=O)NC34CC(C(=O)O)(C3)C4)nc2CC2CCCCC2)c2ccccc12 |  |  |  |  |  |  |  |  |  | 69 |  |  | 116 | 
CC(C)(O)CNC(=O)c1nc(CC2CCCCC2)c(-c2ccc(S(=O)(=O)NC3(C#N)CC3)c3ccccc23)s1 | 15 | 27 | > 10 | 6.3 | 7.3 | 0.7 | > 10 | 0.9 |  | 155 |  | 10 (≈ 5.67 µg/mL) | 167 | 
CC(C)(O)CNC(=O)c1nc(CC2CCCCC2)c(-c2cnc(S(=O)(=O)NC(C)(C)C)c3ccccc23)s1 | 5.2 | 23 | > 10 | 7.6 | > 10 | 1.1 | > 10 | > 10 |  |  |  | < 4 |  | 
CC(C)(C)NS(=O)(=O)c1ccc(-c2sc(C(=O)N3CC4(CCS(=O)(=O)CC4)C3)nc2CC2CCCCC2)c2ccccc12 |  |  |  |  |  |  |  |  |  | 116 |  |  | 128 | 
